EC50 data for ten molecules are collected here from US11230526B1, “Cylcoalkenyl derivatives useful as agonists of the GPR120 and/or GPR40 receptors” (Janssen Pharmaceutica NV, priority 2018, dated 2022).

Holding throughout (format): cell-based
For experiment [1], the target named is T1, Human GPR120 short form (Homo sapiens, UniProt Q5NUL3).
T1 construct: expressed in transfected cells
T1 sequence (Q5NUL3 1-361): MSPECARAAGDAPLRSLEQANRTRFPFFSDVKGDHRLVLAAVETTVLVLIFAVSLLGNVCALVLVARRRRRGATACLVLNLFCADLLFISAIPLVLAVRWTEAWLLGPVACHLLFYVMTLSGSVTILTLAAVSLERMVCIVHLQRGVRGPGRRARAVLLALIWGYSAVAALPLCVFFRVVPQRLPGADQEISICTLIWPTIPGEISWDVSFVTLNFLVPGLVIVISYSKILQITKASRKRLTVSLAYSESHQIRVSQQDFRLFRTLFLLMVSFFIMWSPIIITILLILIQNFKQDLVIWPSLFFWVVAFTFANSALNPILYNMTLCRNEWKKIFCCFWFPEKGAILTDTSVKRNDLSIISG
Briefly: Human GPR120 calcium flux assay, Procedure Calcium A (2500 cells/well). Put shortly:
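HEK293 cells stably expressing human GPR120 short isoform (NM_001195755.1), 2500 cells/well, serum-starved 1 h at 37 °C and loaded with Fluo-4 NW plus probenecid. FLIPR fluorescence read for 300 s after compound addition; response = Fmax−Fmin. EC50 from four-parameter concentration–response fit.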

Experiment [2] deals with T1, Human GPR120 short form. The experiment is described as follows: Human GPR120 calcium flux assay, Procedure Calcium B (4200 cells/well). Put shortly:
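HEK293 cells stably expressing human GPR120 (NM_001195755.1), 4200 cells/well, starved 1 h and loaded with Fluo-4 NW plus probenecid. Ligand-evoked calcium flux read on FLIPR for 300 s after a 10 s baseline. RFU = Fmax−Fmin; EC50 from four-parameter concentration-response fit.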

Experiment [3] has as its target T2, short form of the GPR120 receptor (Homo sapiens, UniProt Q5NUL3).
T2 construct: host or cells: PathHunter CHO-K1 GPR120S β-Arrestin Cell Line
Briefly: Human GPR120 DiscoveRx PathHunter Beta-Arrestin assay, Procedure β-arrestin B. The source says: Human GPR120 DiscoveRx PathHunter® Beta-Arrestin Assay Assay Principle:
The binding of an agonist (medium/long chain fatty acids or small molecule agonists) to the G-protein-coupled receptor GPR120 activates phospholipase C, leading to release of intracellular Ca^+2 through the generation of inositol 1,4,5-trisphosphate (InsP3 or IP3). GPR120 activation can also trigger intracellular signaling via recruitment of Beta-Arrestin. In the present method, agonist-induced activation of the human GPR120 receptor is monitored through the use of PathHunter® CHO-K1 GPR120 Beta-Arrestin Cell Line engineered by DiscoveRx, as detailed below. The cell lines are designed to co-express both the ProLink/Enzyme Donor (PK)-tagged GPCR and the Enzyme […] (EA)-tagged Beta-Arrestin fusion proteins. Upon GPR120 receptor stimulation/activation, the EA-tagged Beta-Arrestin portion is translocated to the tagged receptor, where the two enzyme fragments are brought within close proximity. Under these conditions, these fragments can interact and form an active Beta-gal enzyme complex through Enzyme Fragment Complementation (EFC). This active Beta-gal complex can enzymatically hydrolyse the substrate to produce a detectable light signal; therefore, activation as a function of agonist concentration can be expressed as an EC50 value to determine relative compound activities. This in vitro assay therefore serves to assess compound agonist activity of the GPR120.
In Procedure β-arrestin B the cells used were PathHunter® CHO-K1 GPR120S β-Arrestin Cell Line, expressing the short form of the GPR120 receptor (Accession #[…]), with 5000 cells/well.
The selected CHO-K1 GPR120 β-Arrestin cells were cultured in Ham's F12 media supplemented with 10% fetal bovine serum (FBS), 1% Glutamine, 1×p/s, 800 μg/mL G418 and 300 μg/mL Hygromycin B (for selection). Cell stocks were maintained and grown in a sub-confluent state using standard cell culture procedures. The day before the experiment, the cells were harvested with non-enzymatic cell dissociation buffer and re-suspended in complete growth media at the desired concentration. A Corning 384-plate was then seeded with the proper number of cells in a volume of 25 μL, per well. The seeded plates were incubated overnight at 37° C.
On the day of the experiment, the Assay Buffer containing (a) HBSS with Ca^++ and Mg^++, (b) 20 mM HEPES, and (c) 0.1% BSA stabilizer (pH 7.4) was prepared. The growth medium was gently removed from the cell plates and 20 μL of Assay Buffer added to each well. The plate was then incubated at 37° C. for 60 min. Test compounds were serially diluted in Assay Buffer to desired concentrations (more particularly to one or more of the following μM concentrations: 25, 12.5, 6.25, 3.12, 1.56, 0.78, 0.39, 0.19, 0.10, 0.05, 0.02, 0.01). Five μL of compound dilution was then added to each well and the plate incubated at 37° C. for 90 min. The detection reagents were prepared according to the manufacture's instruction. Twelve μL of the detection reagents were added to each well and the plate incubated at room temperature for 60 min.
The plates were read on an EnVision instrument, using Protocol name: Luminescence, Plate type: 384 Costar, Measurement height: 3 mm, Measurement time: 1 s, Aperture: 384 Plate aperture. The % Activity relative to the positive control was calculated using the following equation:
The % Activity values were plotted versus the concentration of test compound and fitted to a sigmoidal dose-response curve with a Hill slope=1 (fixed value) using nonlinear regression with GraphPad Prism 5.0 to calculate the EC50 values. The Fitting Equation was: Y=Bottom+(Top-Bottom)/(1+10^((Log EC50−X)*HillSlope)), where X is the log of the concentration and Y is the response.

T2 sequence (P32121 whole entry partner, one chain of several): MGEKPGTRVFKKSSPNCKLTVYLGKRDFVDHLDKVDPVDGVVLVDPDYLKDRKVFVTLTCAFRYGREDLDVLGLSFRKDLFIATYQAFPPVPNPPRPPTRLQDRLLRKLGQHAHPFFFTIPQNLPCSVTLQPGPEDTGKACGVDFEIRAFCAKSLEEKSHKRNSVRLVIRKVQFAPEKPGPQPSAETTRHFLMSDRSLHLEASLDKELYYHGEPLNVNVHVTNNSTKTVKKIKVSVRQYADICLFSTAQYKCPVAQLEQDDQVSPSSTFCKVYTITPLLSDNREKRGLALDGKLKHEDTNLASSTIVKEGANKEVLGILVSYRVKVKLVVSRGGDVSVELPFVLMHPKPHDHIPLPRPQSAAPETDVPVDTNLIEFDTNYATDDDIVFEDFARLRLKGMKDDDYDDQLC

On to `Cc1ccc(C2=C(COc3ccc(CCC(=O)O)c(C)c3C)CCCC2)cc1` [Compound 462, 3-[2,3-dimethyl-4-[[2-(p-tolyl)cyclohexen-1-yl]methoxy]phenyl]Propanoic Acid], for which the values for the EC50 in experiment [1], in experiment [2] and in experiment [3] were 462 nM, 66 nM and 478 nM, respectively.

Regarding `Cc1c(CCC(=O)O)ccc(OCC2=C(c3ccc(F)cc3)CCCC2)c1C` [Compound 480, 3-[4-[[2-(4-fluorophenyl)cyclohexen-1-yl]methoxy]-2,3-dimethyl-phenyl]Propanoic Acid], the EC50 came out at 234 nM in experiment [1], 79 nM in experiment [2] and 385 nM in experiment [3].

Take `Cc1c(CCC(=O)O)ccc(OCC2=C(c3ccc(I)cc3)CCC2)c1C` [Compound 57, 3-[4-[[2-(4-iodophenyl)cyclopenten-1-yl]methoxy]-2,3-dimethyl-phenyl]Propanoic Acid]: the EC50 in experiment [1] is 527 nM; in experiment [2], 50 nM; in experiment [3], 258 nM.

On to `CSc1ccc(C2=C(COc3ccc(CCC(=O)O)c(C)c3C)CCC2)cc1` [Compound 50, 3-[2,3-dimethyl-4-[[2-(4-methylsulfanylphenyl)cyclopenten-1-yl]methoxy]phenyl]Propanoic Acid], for which the 50% effective concentration (EC50) in experiment [1] was 409 nM; in experiment [2], 183 nM; in experiment [3] it was 709 nM.

Turning to `Cc1c(CCC(=O)O)ccc(OCC2=C(c3ccc(Br)cc3)CCC2)c1C` [Compound 56, 3-[4-[[2-(4-bromophenyl)cyclopenten-1-yl]methoxy]-2,3-dimethyl-phenyl]Propanoic Acid], the EC50 in experiment [1] was 324 nM; in experiment [2] it was 37 nM; in experiment [3], 85 nM.

On to `CSc1ccc(C2=C(COc3ccc(CCC(=O)O)c(C)c3C)CCCC2)cc1` [Compound 492, 3-[2,3-dimethyl-4-[[2-(4-methylsulfanylphenyl)cyclohexen-1-yl]methoxy]phenyl]Propanoic Acid], for which the EC50 in experiment [1] was found to be 576 nM; in experiment [2], 185 nM; in experiment [3], 717 nM.

For the molecule `Cc1c(CCC(=O)O)ccc(OCC2=C(c3ccc(C(C)C)cc3)CCC2)c1C` [Compound 55, 3-[4-[[2-(4-isopropylphenyl)cyclopenten-1-yl]methoxy]-2,3-dimethyl-phenyl]Propanoic Acid], the concentration giving a half-maximal response (EC50) stood at 793 nM in experiment [1], 282 nM in experiment [2] and 246 nM in experiment [3].

As to `Cc1c(CCC(=O)O)ccc(OCC2=C(c3ccc(C(F)(F)F)cc3)CCC2)c1C` [Compound 75, 3-[2,3-dimethyl-4-[[2-[4-(trifluoromethyl)phenyl]cyclopenten-1-yl]methoxy]phenyl]Propanoic Acid], the concentration giving a half-maximal response (EC50) in experiment [1] amounted to 591 nM; in experiment [2], 195 nM; in experiment [3], 171 nM.

Take `Cc1c(CCC(=O)O)ccc(OCC2=C(c3cccs3)CCCC2)c1C` [Compound 482, 3-[2,3-dimethyl-4-[[2-(2-thienyl)cyclohexen-1-yl]methoxy]phenyl]Propanoic Acid]: the EC50 in experiment [1] was found to be 406 nM; in experiment [2], 91 nM; in experiment [3], 126 nM.

Turning to `Cc1c(CCC(=O)O)ccc(OCC2=C(c3ccc(C(F)(F)F)cc3)CCCC2)c1C` [Compound 460, 3-[2,3-dimethyl-4-[[2-[4-(trifluoromethyl)phenyl]cyclohexen-1-yl]methoxy]phenyl]Propanoic Acid], the EC50 was 1010 nM in experiment [1], 385 nM in experiment [2] and 625 nM in experiment [3].
